As usually defined, the GI50 is the concentration giving 50% growth inhibition. As usually defined, the inhibition is the share of the control response that was lost under treatment. Read a low inhibition as a response near the control.

11 compounds from patent publication US20230312562A1, “TETRAHYDRO-3H-PYRAZOLO QUINOLONE AND TETRAHYDRO-3H-PYRROLO[3,2-F]QUINOLINE -CONTAINING COMPOUNDS AND USES THEREOF” (Purdue Research Foundation, priority 2020, published 2023) can be followed below.

Format in all cases: cell-based
In one assay the test system is MDA-MB-231. Kind of assay: Inhibition of MDA-MB-231 viability/growth at 1 μM, 72 h. To be noted: 1 μM compound, 72 h incubation; for inhibition at 1 µM: Homo sapiens, MDA-MB-231.
A further assay relates to MDA-MB-435. Nature of the assay: NCI-60 sulforhodamine B assay, MDA-MB-435. Conditions: MDA-MB-435, melanoma, 48 h; for GI50: Homo sapiens. How it is done: (§1) Compounds HSD1787, 22, 23 and 27 were sent to the National Cancer Institute (NCI), Bethesda, Maryland (Drug Evaluation Branch), to evaluate the effects of compounds on the NCI-60 cell panel. According to the NCI protocol, the compounds were evaluated at five concentrations (10-fold dilutions) with the highest concentration being 100 μM and the incubation period was 48 h. A sulforhodamine B assay was used to assay the effects of the compounds on the cancer cells. […] The most sensitive cell lines (total growth inhibition, TGI, could be achieved with concentrations less than 1 μM of some of the compounds) were MDA-MB-435 (melanoma), SF-539 (glioma), A498 (renal), MDA-MB-468 (breast), OVCAR-3 (ovarian), NCI-H522 (non-small cell lung cancer). On the other hand, UACC-257 and SK-MEL-28 (both melanoma), TK-10 (renal), OVCAR-4 (ovarian) and T-47D (breast) were resistant to the compounds as 10 μM could not cause total growth inhibition (Table 2). […] This is in line with current appreciation that tumor mutational burden and not necessarily the anatomical origin of the tumor determines treatment strategies or outcomes.
(§2) According to the National Cancer Institute, Bethesda, Maryland (the protocol of the Drug Evaluation Branch), the effects of compounds are measured as follows: Cell suspensions are diluted to a target cell density of 5000-40,000 cells per well (based on cell growth characteristics) in a 96-well microtiter plates. The test compounds were evaluated at five concentrations (10-fold dilutions) with the highest concentration being 100 μM. The incubation period was 48 h under 5% carbon dioxide atmosphere and 100% humidity. A sulforhodamine B assay was used to assay the cells. Optical densities of the wells were read by a plate reader the optical densities were processed into GI50 (the concentration that causes 50% growth inhibition).
(§3) The NCI renamed the IC50 value, the concentration of compound that causes 50% growth inhibition, as follows:
(§4) The control is the well not treated with test agent (https://dtp.cancer.gov/databases_tools/docs/compare/compare_methodology.htm).
On the technique in general: In SRB staining, fixed cells bind dye roughly in proportion to their protein.

The test system of another assay is T-47D. Nature of the assay: NCI-60 sulforhodamine B assay, T-47D. Conditions: Homo sapiens, T47D, breast, 48 h. The procedure: as §1, §2, §3, §4
The next assay relates to MCF7. Kind of assay: NCI-60 sulforhodamine B assay, MCF7. To be noted: MCF7, breast, 48 h; for GI50: Homo sapiens. How it is done:
as §1, §2, §3, §4

The next assay has as its system NCI-H522. Kind of assay: NCI-60 sulforhodamine B assay, NCI-H522. To be noted: NCI-H522, non-small cell lung, 48 h; for GI50: Homo sapiens. How it is done: as §1, §2, §3, §4
For another assay, the system named is UACC-257. Kind of assay: NCI-60 sulforhodamine B assay, UACC-257. To be noted: Homo sapiens; UACC-257, melanoma, 48 h. The procedure:
as §1, §2, §3, §4

For a further assay, the system named is NCI60 cell lines. Kind of assay: NCI-60 cell panel, summary statements. To be noted: melanoma, renal, breast, ovarian and leukemia cancer cell lines; read-out: GI50 values as low as. How it is done: as §1, §2, §3, §4
Another assay deals with SK-MEL-28. Nature of the assay: NCI-60 sulforhodamine B assay, SK-MEL-28. To be noted: Homo sapiens; SK-MEL-28, melanoma, 48 h. The procedure: as §1, §2, §3, §4
Another assay deals with SR. Kind of assay: NCI-60 sulforhodamine B assay, SR. Conditions: Homo sapiens, lymphoma, 48 h. The procedure: as §1, §2, §3, §4
For another assay, the system named is Ovcar-3. Kind of assay: NCI-60 sulforhodamine B assay, Ovcar-3. To be noted: Ovcar-3, ovarian, 48 h; for GI50: Homo sapiens. How it is done: as §1, §2, §3, §4
Another assay relates to NCI/ADR-RES. Nature of the assay: NCI-60 sulforhodamine B assay, NCI/ADR-RES. To be noted: ovarian, 48 h; for GI50: Homo sapiens. How it is done:
as §1, §2, §3, §4

For another assay, the system named is A498. Nature of the assay: NCI-60 sulforhodamine B assay, A498. To be noted: A498, renal, 48 h; for GI50: Homo sapiens. How it is done:
as §1, §2, §3, §4

The subject of a further assay is SF-539. Nature of the assay: NCI-60 sulforhodamine B assay, SF-539. To be noted: SF-539, CNS, 48 h; for GI50: Homo sapiens. How it is done: as §1, §2, §3, §4
Another assay relates to Ovcar-4. Kind of assay: NCI-60 sulforhodamine B assay, Ovcar-4. Conditions: Homo sapiens; Ovcar-4, ovarian, 48 h. The procedure:
as §1, §2, §3, §4

The test system of a further assay is MDA-MB-468. Nature of the assay: NCI-60 sulforhodamine B assay, MDA-MB-468. Conditions: MDA-MB-468, breast, 48 h; for GI50: Homo sapiens. The procedure: as §1, §2, §3, §4
The subject of the next assay is K-562. Nature of the assay: NCI-60 sulforhodamine B assay, K-562. Conditions: Homo sapiens, K562; K-562, leukemia, 48 h. How it is done: as §1, §2, §3, §4
The subject of a further assay is Ovcar-8. Kind of assay: NCI-60 sulforhodamine B assay, Ovcar-8. To be noted: Homo sapiens; Ovcar-8, ovarian, 48 h. The procedure:
as §1, §2, §3, §4

Another assay relates to TK-10. Nature of the assay: NCI-60 sulforhodamine B assay, TK-10. Conditions: Homo sapiens; TK-10, renal, 48 h. How it is done: as §1, §2, §3, §4
The next assay concerns SF-295. Kind of assay: NCI-60 sulforhodamine B assay, SF-295. To be noted: SF-295, CNS, 48 h; for GI50: Homo sapiens. How it is done:
as §1, §2, §3, §4

For the compound `Nc1n[nH]c2ccc([C@@H]3Nc4ccc5[nH]nc(F)c5c4[C@H]4C5CC[C@@H](C5)[C@@H]34)cc12` (stereo in doubt) [Compound 21, 5-(1-Fluoro-6,7,7a,8,9,10,11,11a-octahydro-3H-8,11-methanopyrazolo[4,3-a]phenanthridin-7-yl)-1H-indazol-3-amine], in the assay with MDA-MB-231, the “Inhibition of MDA-MB-231, result in words” value (“Inhibition … in words” below) is “loss of potency”.

For `Nc1n[nH]c2ccc([C@@H]3Nc4c(F)cc5[nH]ncc5c4[C@H]4[C@@H]5CC[C@@H](C5)[C@H]43)cc12` (stereo in doubt) [Compound 22, 5-(5-fluoro-6,7,7a,8,9,10,11,11a-octahydro-3H-8,11-methanopyrazolo[4,3-a]phenanthridin-7-yl)-1H-indazol-3-amine], the GI50 was 34.8 nM in the assay on MDA-MB-435; greater than 10000 nM with T-47D; 61.6 nM in the assay on MCF7; 115 nM with NCI-H522; 5010 nM in the assay on UACC-257; no less than 30 nM in the assay with NCI60 cell lines. For the same compound, the GI50 in the assay with SK-MEL-28 worked out at 1400 nM; in the assay on SR, 87.7 nM; in the assay on Ovcar-3, 220 nM; in the assay with NCI/ADR-RES it was 198 nM; in the assay with A498, 72.2 nM; in the assay on SF-539 it was 167 nM. The GI50 worked out at 3340 nM in the assay on Ovcar-4; 78.8 nM with MDA-MB-468; 47.7 nM in the assay on K-562; 448 nM in the assay with Ovcar-8; 10700 nM in the assay on TK-10; 50 nM in the assay on SF-295. For the same compound, the “TGI (total growth inhibition)” value in the assay on NCI-H522 amounted to 1920 nM; in the assay with Ovcar-3 it was 806 nM; in the assay on NCI/ADR-RES it was 921 nM; in the assay on A498, 636 nM; in the assay on SF-539, 590 nM; with MDA-MB-468, 468 nM. In the assay with MDA-MB-231, this compound yielded an inhibition at 1 µM of 79%.

As for `Nc1n[nH]c2cc(F)c([C@@H]3Nc4c(F)cc5[nH]ncc5c4[C@H]4[C@@H]5CC[C@@H](C5)[C@H]43)cc12` (stereo in doubt) [Compound 23, 6-Fluoro-5-(5-fluoro-6,7,7a,8,9,10,11,11a-octahydro-3H-8,11-methanopyrazolo[4,3-a]phenanthridin-7-yl)-1H-indazol-3-amine], the concentration for 50% growth inhibition (GI50) with MDA-MB-435 was 84.6 nM; in the assay with T-47D, greater than 10000 nM; with MCF7 it was 131 nM; with NCI-H522 it was 105 nM; with UACC-257, 5660 nM; in the assay with NCI60 cell lines, no less than 30 nM. The concentration for 50% growth inhibition (GI50) with SK-MEL-28 came out at 3680 nM; in the assay with SR, 131 nM; with Ovcar-3 it was 103 nM; in the assay on NCI/ADR-RES it was 150 nM; in the assay with A498 it was 69 nM; in the assay on SF-539, 85.2 nM. Besides, the 50% growth inhibitory concentration (GI50) came out at 1170 nM in the assay on Ovcar-4; 86.5 nM in the assay on MDA-MB-468; 110 nM with K-562; 142 nM with Ovcar-8; 5720 nM in the assay with TK-10; 91.5 nM in the assay with SF-295. The “TGI (total growth inhibition)” value came to 231 nM in the assay on MDA-MB-435; 8330 nM in the assay with MCF7; 6600 nM in the assay with NCI-H522; 4100 nM in the assay with Ovcar-3; 5810 nM with NCI/ADR-RES; 200 nM in the assay on A498. Besides, the “TGI (total growth inhibition)” value in the assay with SF-539 was found to be 270 nM; with SF-295, 3990 nM.

As to `Nc1n[nH]c2cc([C@@H]3Nc4c(Cl)cc5[nH]ncc5c4[C@H]4[C@@H]5CC[C@@H](C5)[C@H]43)ccc12` (stereo in doubt) [Compound 24, 6-(5-Chloro-6,7,7a,8,9,10,11,11a-octahydro-3H-8,11-methanopyrazolo[4,3-a]phenanthridin-7-yl)-1H-indazol-3-amine], the “Inhibition … in words” value with MDA-MB-231 is “inactive”.

For `Nc1n[nH]c2cc([C@@H]3Nc4c(Br)cc5[nH]ncc5c4[C@H]4[C@@H]5CC[C@@H](C5)[C@H]43)ccc12` (stereo in doubt) [Compound 25, 6-(5-Bromo-6,7,7a,8,9,10,11,11a-octahydro-3H-8,11-methanopyrazolo[4,3-a]phenanthridin-7-yl)-1H-indazol-3-amine], in the assay on MDA-MB-231, the “Inhibition … in words” value is “inactive”.

For `O=C(Nc1n[nH]c2ccc([C@@H]3Nc4ccc5[nH]ncc5c4[C@H]4[C@@H]5CC[C@@H](C5)[C@H]43)cc12)C1CC1` (stereo in doubt) [Compound 28, N-(5-(6,7,7a,8,9,10,11,11a-octahydro-3H-8,11-Methanopyrazolo[4,3-a]phenanthridin-7-yl)-1H-indazol-3-yl)cyclopropanecarboxamide], at 1 µM the inhibition in the assay on MDA-MB-231 was 31%.

In the case of `Nc1n[nH]c2cc([C@@H]3Nc4ccc5[nH]ncc5c4[C@H]4[C@@H]5CC[C@@H](C5)[C@H]43)ccc12` (stereo in doubt) [Compound 30, 6-(6,7,7a,8,9,10,11,11a-Octahydro-3H-8, 11-methanopyrazolo[4,3-a]phenanthridin-7-yl)-1H-indazol-3-amine], at 1 µM the inhibition with MDA-MB-231 was 29%.

For the compound `Nc1n[nH]c2ccc([C@@H]3Nc4ccc5cn[nH]c5c4[C@H]4[C@@H]5CC[C@@H](C5)[C@H]43)cc12` (stereo in doubt) [Compound 31, 5-(6,7,7a,8,9,10,11,11a-Octahydro-1H-8,11-methanopyrazolo[3,4-a]phenanthridin-7-yl)-1H-indazol-3-amine], at 1 µM the inhibition with MDA-MB-231 was 94%.

Regarding `Nc1n[nH]c2ccc(-c3nc4ccc5[nH]ncc5c4c4c3[C@H]3CC[C@@H]4C3)cc12` (stereo in doubt) [Compound 32, 5-(8,9,10,11-tetrahydro-3H-8,11-Methanopyrazolo[4,3-a]phenanthridin-7-yl)-1H-indazol-3-amine], the inhibition at 1 µM in the assay with MDA-MB-231 worked out at 19%.

On to `Nc1n[nH]c2ccc([C@@H]3Nc4ccc5[nH]ncc5c4[C@H]4OCCO[C@H]43)cc12` (stereo in doubt) [Compound 33, 5-(2,3,4a,6,9,11c-Hexahydro-5H-[1,4]dioxino[2,3-c]pyrazolo[4,3-f]quinolin-5-yl)-1H-indazol-3-amine], for which, in the assay with MDA-MB-231, the “Inhibition … in words” value is given as “no activity”.

In the assay with MDA-MB-231, `Nc1nc2ccc([C@@H]3Nc4ccc5[nH]ncc5c4[C@H]4[C@@H]5CC[C@@H](C5)[C@H]43)cc2s1` [Compound 29, 6-(6,7,7a,8,9,10,11,11a-Octahydro-3H-8,11-methanopyrazolo[4,3-a]phenanthridin-7-yl)benzo[d]thiazol-2-amine] gave an inhibition at 1 µM of 41%.
